Laboratory results as given in patent US5041426A, “Immune system enhancing 3-β-d-ribofuranosylthiazolo[4,5-d]pyridimine nucleosides and nucleotides” (priority 1988, dated 1991).
Values joined by “and” are separate entries in the source; they are usually repeats but may differ in a detail not shown here. Equal values may be shown once. Read-outs that look alike come from different tables or passages of the source.

Assays:
Mouse Cytomegalovirus = experiment: Antiviral activity against mouse cytomegalovirus infection in mice
[1] = tested on: Herpes Simplex Virus Type 1; experiment: Antiviral activity against Herpes simplex virus type 1 infection in mice; assay type: in vivo, mouse; details: at -48, -24, and -2 h
[2] = tested on: Reticulum-cell Sarcoma M5076; experiment: Reduction of reticulum-cell sarcoma metastatic foci in mice; assay type: in vivo, mouse
Protocol: Utilizing the protocol of Alessandri, G., Giavazzi, R., Falautano, P., Spreafico, F., Garattini, S., and Mantovani, A., European J. Cancer, 17:651-658, 1981, the antimetastatic activity of Compound 7 is seen in a sarcoma M5076 tumor system.
Fragments of reticulum-cell sarcoma M5076 were introduced into mice. The animals were treated with compound 7 for 20 days at various dosages. After treatment, the required tissues were collected, fixed in Bouin's solution and subjected to microscopic observation to enumerate metastatic foci. The results are shown in table 26 as the number of metastatic foci and table 27 as the number of mice with metastatic foci. In table 26 both the range and the median number of foci for each test group is indicated.
^a Fragments of reticulumcell sarcoma M5076 (≈14 mg) were
implanted sc in the left flank of BDF1 female mice and ip bolus
injections of drug were initiated 24 hrs later. The drug was delivered on
the basis of 0.01 ml/g mouse weight. Control mice received a 0.09%
solution of NaCl delivered on the same basis. Seven mice were used per
treatment group. Treatment give qd for days 1- 20.

sheep red blood cells = experiment: Primary anti-sheep red blood cell antibody response in mice (plaque assay); assay type: in vivo, mouse; details: C57BL/6, + SRBC, day 6
Protocol: Compound 7 was tested to determine its effects on primary antibody response against sheep red blood cells in vivo. Mice (C57BL/6) in groups of 4 were injected intraperitoneally with 0.1% sheep red blood cell suspended in saline. At various times compound 7 in various concentrations was administered intraperitoneally.
^a Groups of four C57BL/6 mice were injected i.p. with 6.5 ×
10^6 SRBC and various doses of compound 7. The number of PFC to SRBC
(shown as mean ± SD) were determined on day 6 as described in Cheever.
For Table 9 the number of antibody cells was determined by the modified Jerne, Nordin plaque assay as disclosed in Jerne, N. K., Nordin, A. A., Science 140:405, 1963.

Influenza B Virus = experiment: Antiviral activity against Influenza B virus infection in mice; assay type: in vivo, mouse; details: for Mean Survival Time: once a day at -2 h and days 2, 4, 6
Protocol: Compound 7 was tested therapeutically against Influenza B Virus Infection in Mice. In addition to a saline control Ribavirin, a known antiviral, was utilized for test purposes.
hours previrus inoculation.
^c p < .001 twotailed ttest.

[3] = tested on: Human Peripheral Blood Mononuclear Cells; experiment: In vitro potentiation of IgM production by human PBMNC or B cells (ELISA); assay type: cell-based
Protocol: After incubation, supernatants were harvested and checked for […]

YAC-1 cells = experiment: In vitro potentiation of murine natural killer cell activity (mouse spleen cells, 51Cr release); assay type: cell-based
Protocol: After incubation the cytotoxicity of the treated and untreated cells was determined against YAC-1 cells.
^a Spleen cells from mice were treated with 0.05 mM concentration of
amino acids and 5 × 10^-5 M Mercaptoethanol. The effector cells
were then tested for their cytotoxic activity against YAC1 target cells i
4 hr ^51 Cr release assay.
^a Spleen cells from mice were incubated in the absence and presence
of various compounds. After incubation, cells were suspended in complete
medium and then their cytotoxic activity was determined against YAC1
target cells as described in the text

San Angelo Virus [4] = assay type: in vivo, mouse; details: compound 7 5 mg/kg at -24 h, saline days 0-6; of mice that died
San Angelo Virus [5] = assay type: in vivo, mouse; details: for Mean Survival Time: Time (21 days)
[6] = tested on: Herpes Simplex Virus Type 2; experiment: Antiviral activity against Herpes simplex virus type 2 infection in mice; assay type: in vivo, mouse; details: for Mean Survival Time: at -48, -24, and -2 h
Protocol: In this test Compound 7 was tested against both Herpes Simplex Type 1 Virus and Herpes Simplex Type 2 Virus. […] In each of these tests a placebo was utilized for control purposes. The survival time reflects survival time of those animals which succumbed during the test. […]
^b A 2% sodium bicarbonate solution was used as the placebo and as
diluent for Compound -7.
^c Statistically significant (p < .05) difference between the
drugtreated and placebo control mice, determined by the twotailed ttest.

murine B16 melanoma = experiment: Artificially induced pulmonary metastatic foci of B16 melanoma in mice; assay type: in vivo, mouse; details: Group 2: 100 mg/kg i.p. 24 h before tumor injection
Protocol: Test drug, compound 7, was given to groups of test animals. The groups includes a first control group, a second group given drug 24 hours prior to intravenous tumor injection, a third group given drug both 24 hours prior to intravenously tumor injection and 72 hours post tumor injection and a fourth group given drug 72 hours post tumor injection.
^a 10 week old, female C57B1/6 mice in groups of 5 each were injected
intravenously with 5 × 10^5 of B16 melanoma tumor cells. The
mice in groups 2, 3 and 4 were treated by injection of 100 mg/kg of drug

[7] = 62 mg/kg ip qd days 1-20, p < 0.005

## Nc1nc2c(sc(=O)n2[C@@H]2O[C@H](CO)[C@@H](O)[C@H]2O)c(=O)[nH]1 [Compound 7, 5-Amino-3-β-D-ribofuranosylthiazolo[4,5-d]pyrimidine-2,7(6H)-dione]
Mouse Cytomegalovirus; 50 mg/kg/day, once a day at -2 h and days 2, 4, 6 (therapeutic)
  Mean Survival Time: 6.3 ± 1.1 days
Mouse Cytomegalovirus; 50 mg/kg/day, single dose 24 h pre-virus (prophylactic)
  Mean Survival Time: 6.5 ± 0.8 days
Mouse Cytomegalovirus; 100 mg/kg/day, once a day at -2 h and days 2, 4, 6 (therapeutic)
  Mean Survival Time: 6.0 ± 0.8 days
Mouse Cytomegalovirus; 100 mg/kg/day, single dose 24 h pre-virus (prophylactic)
  Mean Survival Time: 7.0 ± 1.4 days
Mouse Cytomegalovirus; 200 mg per kg, prophylactic mode
  cure: 100%
Mouse Cytomegalovirus; 200 mg/kg/day, half-daily doses 24 and 16 h pre-virus (prophylactic)
  Mean Survival Time: > 21 days
[1]; 50 mg/kg/day
  Mean Survival Time: 14.8 ± 5.0 days
[1]; 100 mg/kg/day
  Mean Survival Time: 11.4 ± 1.8 days
[1]; 200 mg/kg/day
  Mean Survival Time: 11.0 ± 1.7 days
[2]; 37 mg/kg ip qd days 1-20
  Mice With Metastatic Foci in Lung (+/7): 7/7
  Number of Metastatic Foci in Liver, Range: 0-17
  Number of Metastatic Foci in Lung, Range: 1-11
[2]; 37 mg/kg ip qd days 1-20, p < 0.005
  Number of Metastatic Foci in Liver, Medium: 1
[2]; 37 mg/kg ip qd days 1-20, p < 0.01
  Number of Metastatic Foci in Lung, Median: 6
[2]; 37 mg/kg ip qd days 1-20, p < 0.05
  Mice With Metastatic Foci in Liver (+/7): 4/7
[2]; 62 mg/kg ip qd days 1-20
  Mice With Metastatic Foci in Lung (+/7): 6/7
  Number of Metastatic Foci in Liver, Range: 0-1
  Number of Metastatic Foci in Lung, Range: 0-29
[2]; [7]
  Mice With Metastatic Foci in Liver (+/7): 1/7
  Number of Metastatic Foci in Liver, Medium: 0
[2]; 62 mg/kg ip qd days 1-20, p < 0.09
  Number of Metastatic Foci in Lung, Median: 2
[2]; 104 mg/kg ip qd days 1-20
  Number of Metastatic Foci in Liver, Range: 0-0
  Number of Metastatic Foci in Lung, Range: 0-4
[2]; 104 mg/kg ip qd days 1-20, p < 0.0005
  Mice With Metastatic Foci in Liver (+/7): 0/7
[2]; 104 mg/kg ip qd days 1-20, p < 0.0009
  Number of Metastatic Foci in Liver, Medium: 0
[2]; 104 mg/kg ip qd days 1-20, p < 0.003
  Number of Metastatic Foci in Lung, Median: 0
[2]; 104 mg/kg ip qd days 1-20, p < 0.025
  Mice With Metastatic Foci in Lung (+/7): 3/7
Sheep red blood cells; 1.9 mg i.p.
  PFC/10^6 Spleen Cells: 143 ± 140 PFC/10^6 Spleen Cells
Sheep red blood cells; 2.97 mg i.p.
  PFC/10^6 Spleen Cells: 307 ± 156 PFC/10^6 Spleen Cells and 165 ± 28 PFC/10^6 Spleen Cells
Sheep red blood cells; 3.3 mg i.p.
  PFC/10^6 Spleen Cells: 176 ± 105 PFC/10^6 Spleen Cells
Sheep red blood cells; 4.95 mg i.p.
  PFC/10^6 Spleen Cells: 467 ± 170 PFC/10^6 Spleen Cells and 433 ± 172 PFC/10^6 Spleen Cells
Sheep red blood cells; 4.97 mg i.p.
  PFC/10^6 Spleen Cells: 371 ± 56 PFC/10^6 Spleen Cells
Influenza B Virus; 50 mg/kg/day
  Mean Survival Time: 6.4 ± 1.5 days
Influenza B Virus; 100 mg/kg/day
  Mean Survival Time: 6.6 ± 1.1 days
Influenza B Virus; Table 12
  efficacy against influenza B (in words): efficacy between saline, having no antiviral activity against influenza, and Ribavirin
Influenza B Virus; further test
  antiviral activity against influenza B virus, further test: little or no antiviral activity
[3]; SAC activated PBMNC
  increase of IgM over cultures without compound 7: over a two fold increase
[3]; up to
  increase in IgM production: up to 34 fold
YAC-1 cells; 0.05 mM, 20 to 44 h
  natural killer cell activity compared to Poly I:C: increased activity compared to Poly I:C
YAC-1 cells; C57BL/6J spleen cells, treatment 0 h, compound 7 at 0.05 mM
  % Natural Killer Cell Cytotoxicity: 18%
YAC-1 cells; C57BL/6J spleen cells, treatment 20 h, compound 7 at 0.05 mM
  % Natural Killer Cell Cytotoxicity: 35% and 25%
YAC-1 cells; C57BL/6J spleen cells, treatment 44 h, compound 7 at 0.05 mM
  % Natural Killer Cell Cytotoxicity: 34% and 22%
YAC-1 cells; CBA/CaJ spleen cells, treatment 0 h, compound 7 at 0.05 mM
  % Natural Killer Cell Cytotoxicity: 15% and 23%
YAC-1 cells; CBA/CaJ spleen cells, treatment 20 h, compound 7 at 0.05 mM
  % Natural Killer Cell Cytotoxicity: 34% and 62%
YAC-1 cells; CBA/CaJ spleen cells, treatment 44 h, compound 7 at 0.05 mM
  % Natural Killer Cell Cytotoxicity: 31% and 44%
YAC-1 cells; Table 21, 0.05 mM
  % Natural Killer Cell Cytotoxicity: 34.5% and 25% and 28%
San Angelo Virus [4]
  Mean Survival Time: 9.6 ± 1.6 days
San Angelo Virus [5]; 50 mg/kg/day, once a day at -2 h and days 2, 4, 6
  Mean Survival Time: > 13.0 ± 0.0 days
San Angelo Virus [5]; 100 mg/kg/day, once a day at -2 h and days 2, 4, 6
  Mean Survival Time: > 21 days
San Angelo Virus [5]; 200 mg/kg/day, -2 h and days 2, 4, 6, half daily doses twice a day
  Mean Survival Time: > 21 days
San Angelo Virus [5]; 200 mg/kg/day, half-daily doses at 24 and 16 h pre-virus (prophylactic)
  Mean Survival Time: > 21 days
San Angelo Virus [5]; therapeutic and prophylactic mode
  antiviral activity compared with Ribavirin: antiviral activity equal to that of Ribavirin
[6]; 50 mg/kg/day
  Mean Survival Time: 11.8 ± 2.3 days
[6]; 100 mg/kg/day
  Mean Survival Time: 11.2 ± 1.5 days
[6]; 200 mg per kg in the mouse
  toxicity: partially toxic
[6]; 200 mg/kg/day
  Mean Survival Time: 7.2 ± 3.9 days
[6]; 200 mg/kg/day, days 1 and 2 post virus inoculation
  deaths from drug toxicity: Three mice died on days 1 and 2
[6]; 200 mg/kg/day, excluding three toxicity deaths
  survival time of the rest of the mice that died: 9.6 ± 0.8 days
Murine B16 melanoma
  Mean No. Of Metastatic Foci in Lungs: 8
